In patent publication US6706663B2, “Herbicidal 3-heterocyclic substituted benzisothiazole and benzisoxazole compounds” (Wyeth, priority 2000, dated 2004):

Tests used:
SETVI (Setaria viridis) [1] = assay: Preemergence herbicidal evaluation; type: in vivo, (L.) Beau; conditions: rated 4-5 weeks after treatment
From the text: (§1) Results of herbicide evaluation are expressed on a rating scale (0-9). The scale is based upon a visual observation of plant stand, vigor, malformation, size, chlorosis and overall plant appearance as compared with a control.
(§2) The preemergence herbicidal activity of the test compounds of the present invention is exemplified by the following tests in which the seeds of a variety of monocotyledonous and dicotyledonous plants are separately mixed with potting soil and planted on top of approximately one inch of soil in separate pint cups. […] The treated cups are then placed on greenhouse benches, watered and cared for in accordance with conventional greenhouse procedures. From four to five weeks after treatment, the tests are terminated and each cup is examined and rated according to the rating system provided in Example 87. The plant species used and the compounds evaluated are the same as those shown in Example 87.

[2] = test system: ECHCG (Echinochloa crus-galli); assay: Preemergence herbicidal evaluation; type: in vivo, (L.) Beau; conditions: rated 4-5 weeks after treatment
From the text: as §1, §2

ORYSAT (Rice, Tebonnet) [3] = assay: Postemergence herbicidal evaluation; type: in vivo, Oryza sativa, (L.) Tebonnet; conditions: postemergence
Protocol: (§3) In the tests, seedling plants are grown in jiffy flats for about two weeks. […] After spraying, the plants are placed on greenhouse benches and are cared for in accordance with conventional greenhouse procedures. From four to five weeks after treatment, the seedling plants are examined and rated according to the rating system set forth below. Where more than one test is involved for a given compound, the data are averaged.
as §1

[4] = test system: CHEAL (Chenopodium album); assay: Preemergence herbicidal evaluation; type: in vivo, L.; conditions: rated 4-5 weeks after treatment
From the text: as §1, §2

[5] = test system: AMBEL (Ambrosia artemisifolia); assay: Preemergence herbicidal evaluation; type: in vivo, L.; conditions: rated 4-5 weeks after treatment
From the text: as §1, §2

[6] = test system: CASOB (Cassia obtusifolia); assay: Preemergence herbicidal evaluation; type: in vivo, L.; conditions: rated 4-5 weeks after treatment
From the text: as §1, §2

[7] = test system: MOOVA (Monochoria vaginalis); assay: Flooded paddy, preemergence weed control; type: in vivo, Presl.; conditions: rated 3-4 weeks after treatment, 0-9 rating scale
Protocol: as §1
(§4) Preemergence herbicidal activity under flooded paddy conditions is determined as follows: plant seeds or propagating organs are planted in the top 0.5 cm of silt loam soil in 32 oz. plastic containers with a diameter of 10.5 cm and no drainage holes. Water is added to these containers and maintained at 1.5 to 3 cm above the soil surface for the duration of the experiment. […] The treated containers are placed on greenhouse benches and cared for in accordance with conventional greenhouse procedures.

SETVI (Setaria viridis) [8] = assay: Postemergence herbicidal evaluation; type: in vivo, (L.) Beau; conditions: postemergence
Protocol: In the tests, seedling plants are grown in jiffy flats for about two weeks. The test compounds are dispersed in 50/50 acetone/water mixtures containing 0.5% TWEEN® 20, a polyoxyethylene sorbitan monolaurate surfactant of Atlas Chemical Industries, in sufficient quantities to provide the equivalent of about 0.0040 kg to 1.000 kg per hectare of active compound when applied to the plants through a spray nozzle operating at 40 psi for a predetermined time. After spraying, the plants are placed on greenhouse benches and are cared for in accordance with conventional greenhouse procedures. From four to five weeks after treatment, the seedling plants are examined and rated according to the rating system set forth below. Where more than one test is involved for a given compound, the data are averaged.
as §1

GALAP (Galium aparine) [9] = assay: Preemergence herbicidal evaluation; type: in vivo; conditions: rated 4-5 weeks after treatment
From the text: as §1, §2

ZEAMX (Corn, Field) [10] = assay: Postemergence herbicidal evaluation; type: in vivo, Zea mays, L.; conditions: postemergence
Protocol: as §3, §1

[11] = test system: IPOHE (Ipomoea hederacea); assay: Postemergence herbicidal evaluation; type: in vivo, (L.) Jacq.; conditions: postemergence
Protocol: as §3, §1

[12] = test system: ABUTH (Abutilon theophrasti); assay: Postemergence herbicidal evaluation; type: in vivo, Medic.; conditions: postemergence
Protocol: as §3, §1

[13] = test system: TRZAWR (Wheat, Winter, cv Riband); assay: Postemergence herbicidal evaluation; type: in vivo, Triticum aestivum; conditions: postemergence
Protocol: as §3, §1

[14] = test system: SAGPY (Sagittaria pygmaea); assay: Flooded paddy, preemergence weed control; type: in vivo, L.; conditions: rated 3-4 weeks after treatment, 0-9 rating scale
Protocol: as §1, §4

[15] = test system: GLXMAW (Soybean, Williams); assay: Postemergence herbicidal evaluation; type: in vivo, Glycine max, (L.) Merr. cv Williams; conditions: postemergence
Protocol: as §3, §1

ZEAMX (Corn, Field) [16] = assay: Preemergence herbicidal evaluation; type: in vivo, Zea mays, L.; conditions: rated 4-5 weeks after treatment
From the text: as §1, §2

[17] = test system: ABUTH (Abutilon theophrasti); assay: Preemergence herbicidal evaluation; type: in vivo, Medic.; conditions: rated 4-5 weeks after treatment
From the text: as §1, §2

[18] = test system: IPOHE (Ipomoea hederacea); assay: Preemergence herbicidal evaluation; type: in vivo, (L.) Jacq.; conditions: rated 4-5 weeks after treatment
From the text: as §1, §2

[19] = test system: ECHCG (Echinochloa crus-galli); assay: Postemergence herbicidal evaluation; type: in vivo, (L.) Beau; conditions: postemergence
Protocol: as §3, §1

[20] = test system: TRZAWR (Wheat, Winter, cv Riband); assay: Preemergence herbicidal evaluation; type: in vivo, Triticum aestivum; conditions: rated 4-5 weeks after treatment
From the text: as §1, §2

GALAP (Galium aparine) [21] = assay: Postemergence herbicidal evaluation; type: in vivo; conditions: postemergence
Protocol: as §3, §1

ORYSAT (Rice, Tebonnet) [22] = assay: Preemergence herbicidal evaluation; type: in vivo, Oryza sativa, (L.) Tebonnet; conditions: rated 4-5 weeks after treatment
From the text: as §1, §2

[23] = test system: GLXMAW (Soybean, Williams); assay: Preemergence herbicidal evaluation; type: in vivo, Glycine max, (L.) Merr. cv Williams; conditions: rated 4-5 weeks after treatment
From the text: as §1, §2

[24] = test system: CHEAL (Chenopodium album); assay: Postemergence herbicidal evaluation; type: in vivo, L.; conditions: postemergence
Protocol: as §3, §1

[25] = test system: AMBEL (Ambrosia artemisifolia); assay: Postemergence herbicidal evaluation; type: in vivo, L.; conditions: postemergence
Protocol: as §3, §1

[26] = test system: CASOB (Cassia obtusifolia); assay: Postemergence herbicidal evaluation; type: in vivo, L.; conditions: postemergence
Protocol: as §3, §1

[27] = test system: ECHORC (Echinochloa oryzoides); assay: Flooded paddy, preemergence weed control; type: in vivo, Echinochloa oryzoides (Ard.) Fritsch.; conditions: rated 3-4 weeks after treatment, 0-9 rating scale
Protocol: as §1, §4

CYPIR (Cyperus iria) = assay: Flooded paddy, preemergence weed control; type: in vivo; conditions: rated 3-4 weeks after treatment, 0-9 rating scale
Protocol: as §1, §4

ORYSAT (Rice, Tebonnet) [28] = assay: Flooded paddy, post-transplant rice tolerance; type: in vivo, Oryza sativa, (L.) Tebonnet; conditions: in vivo
Protocol: as §1
The tolerance of transplanted rice to post-transplanted herbicide application is determined as follows: two ten-day-old rice seedlings (cv. Tebonnet) are transplanted into silt loam soil in 32 oz. plastic containers with a diameter of 10.5 cm and no drainage holes. After transplanting, the containers are flooded and the water level is maintained at 1.5 to 3 cm above the soil surface. […] The treated containers are placed on greenhouse benches, watered such that the water level is maintained as stated above, and cared for in accordance with conventional greenhouse procedures.

3-[3-[5-(bromomethyl)-5-hydroxy-m-diaxan-2-yl]-1,2-benzisothiazol-5-yl]-1-methyl-6-(trifluoromethyl)uracil [Compound 69]
3.0: herbicidal rating, MOOVA ([7]; rate 0.1250 kg/ha) | herbicidal rating, SAGPY ([14]; rate 0.1250 kg/ha) | Preemergence herbicidal rating ZEAMX (ZEAMX (Corn, Field) [16]; Rate 0.1250 kg/ha) | ECHCG herbicidal rating ([19]; rate 0.0620 kg/ha) | herbicidal rating, ECHORC ([27]; rate 0.1250 kg/ha) | herbicidal rating, CYPIR (CYPIR (Cyperus iria); rate 0.1250 kg/ha)
5.0: Preemergence herbicidal rating TRZAWR ([20]; Rate 0.2500 kg/ha) | Preemergence herbicidal rating ORYSAT (ORYSAT (Rice, Tebonnet) [22]; Rate 0.2500 kg/ha)
2.0: SETVI herbicidal rating (SETVI (Setaria viridis) [8]; rate 0.0320 kg/ha) | ECHCG herbicidal rating ([19]; rate 0.0320 kg/ha) | Preemergence herbicidal rating TRZAWR ([20]; Rate 0.1250 kg/ha) | Preemergence herbicidal rating ORYSAT (ORYSAT (Rice, Tebonnet) [22]; Rate 0.1250 kg/ha) | Preemergence herbicidal rating GLXMAW ([23]; Rate 0.0620 kg/ha) | CASOB herbicidal rating ([26]; rate 0.0620 kg/ha)
9.0: Preemergence herbicidal rating SETVI (SETVI (Setaria viridis) [1]; Rate 0.1250 kg/ha) | Preemergence herbicidal rating SETVI (SETVI (Setaria viridis) [1]; Rate 0.2500 kg/ha) | Preemergence herbicidal rating CHEAL ([4]; Rate 0.0620 kg/ha) | Preemergence herbicidal rating CHEAL ([4]; Rate 0.1250 kg/ha) | Preemergence herbicidal rating CHEAL ([4]; Rate 0.2500 kg/ha) | Preemergence herbicidal rating AMBEL ([5]; Rate 0.1250 kg/ha) | Preemergence herbicidal rating GALAP (GALAP (Galium aparine) [9]; Rate 0.1250 kg/ha) | Preemergence herbicidal rating GALAP (GALAP (Galium aparine) [9]; Rate 0.2500 kg/ha) | IPOHE herbicidal rating ([11]; rate 0.0320 kg/ha) | IPOHE herbicidal rating ([11]; rate 0.0620 kg/ha) | ABUTH herbicidal rating ([12]; rate 0.0320 kg/ha) | ABUTH herbicidal rating ([12]; rate 0.0620 kg/ha) | Preemergence herbicidal rating ABUTH ([17]; Rate 0.0620 kg/ha) | Preemergence herbicidal rating ABUTH ([17]; Rate 0.1250 kg/ha) | Preemergence herbicidal rating ABUTH ([17]; Rate 0.2500 kg/ha) | Preemergence herbicidal rating IPOHE ([18]; Rate 0.1250 kg/ha) | Preemergence herbicidal rating IPOHE ([18]; Rate 0.2500 kg/ha) | Preemergence herbicidal rating GLXMAW ([23]; Rate 0.1250 kg/ha) | Preemergence herbicidal rating GLXMAW ([23]; Rate 0.2500 kg/ha) | CHEAL herbicidal rating ([24]; rate 0.0320 kg/ha) | AMBEL herbicidal rating ([25]; rate 0.0320 kg/ha) | AMBEL herbicidal rating ([25]; rate 0.0620 kg/ha)
7.5: GLXMAW herbicidal rating ([15]; rate 0.0320 kg/ha)
0.0: Preemergence herbicidal rating CASOB ([6]; Rate 0.0620 kg/ha) | herbicidal rating, MOOVA ([7]; rate 0.0080 kg/ha) | herbicidal rating, MOOVA ([7]; rate 0.0320 kg/ha) | herbicidal rating, SAGPY ([14]; rate 0.0080 kg/ha) | herbicidal rating, SAGPY ([14]; rate 0.0320 kg/ha) | CASOB herbicidal rating ([26]; rate 0.0320 kg/ha) | herbicidal rating, ECHORC ([27]; rate 0.0080 kg/ha) | herbicidal rating, ECHORC ([27]; rate 0.0320 kg/ha) | herbicidal rating, CYPIR (CYPIR (Cyperus iria); rate 0.0080 kg/ha) | herbicidal rating, CYPIR (CYPIR (Cyperus iria); rate 0.0320 kg/ha)
7.0: Preemergence herbicidal rating SETVI (SETVI (Setaria viridis) [1]; Rate 0.0620 kg/ha) | Preemergence herbicidal rating AMBEL ([5]; Rate 0.0620 kg/ha) | Preemergence herbicidal rating GALAP (GALAP (Galium aparine) [9]; Rate 0.0620 kg/ha) | GLXMAW herbicidal rating ([15]; rate 0.0620 kg/ha) | Preemergence herbicidal rating ZEAMX (ZEAMX (Corn, Field) [16]; Rate 0.2500 kg/ha) | CHEAL herbicidal rating ([24]; rate 0.0620 kg/ha)
5.5: ZEAMX herbicidal rating (ZEAMX (Corn, Field) [10]; rate 0.0320 kg/ha) | ZEAMX herbicidal rating (ZEAMX (Corn, Field) [10]; rate 0.0620 kg/ha)
4.0: Preemergence herbicidal rating ECHCG ([2]; Rate 0.0620 kg/ha) | ORYSAT herbicidal rating (ORYSAT (Rice, Tebonnet) [3]; rate 0.0320 kg/ha) | ORYSAT herbicidal rating (ORYSAT (Rice, Tebonnet) [3]; rate 0.0620 kg/ha) | SETVI herbicidal rating (SETVI (Setaria viridis) [8]; rate 0.0620 kg/ha) | TRZAWR herbicidal rating ([13]; rate 0.0320 kg/ha) | GALAP herbicidal rating (GALAP (Galium aparine) [21]; rate 0.0320 kg/ha)
8.0: Preemergence herbicidal rating ECHCG ([2]; Rate 0.1250 kg/ha) | Preemergence herbicidal rating ECHCG ([2]; Rate 0.2500 kg/ha) | Preemergence herbicidal rating AMBEL ([5]; Rate 0.2500 kg/ha)
1.0: Preemergence herbicidal rating CASOB ([6]; Rate 0.1250 kg/ha) | Preemergence herbicidal rating ZEAMX (ZEAMX (Corn, Field) [16]; Rate 0.0620 kg/ha) | Preemergence herbicidal rating IPOHE ([18]; Rate 0.0620 kg/ha) | Preemergence herbicidal rating TRZAWR ([20]; Rate 0.0620 kg/ha) | Preemergence herbicidal rating ORYSAT (ORYSAT (Rice, Tebonnet) [22]; Rate 0.0620 kg/ha)
6.0: Preemergence herbicidal rating CASOB ([6]; Rate 0.2500 kg/ha) | GALAP herbicidal rating (GALAP (Galium aparine) [21]; rate 0.0620 kg/ha)
4.5: TRZAWR herbicidal rating ([13]; rate 0.0620 kg/ha)

Cn1c(C(F)(F)F)cc(=O)n(-c2ccc3c(c2)C(c2cccc[n+]2[O-])=NS3(=O)=O)c1=O [Example 15]
0.0: herbicidal rating, ORYSAT (rice tolerance) (ORYSAT (Rice, Tebonnet) [28])
